Measured values taken from patent US7163711B2, “Crystalline α-D-glucosyl α-D-galactoside, saccharide composition comprising the same, process for producing the same, and uses thereof” (Kabushiki Kaisha Hayashibara Seibutsu Kagaku Kenkyujo, priority 2002, dated 2007).

Experiments:
Assay type in all cases: physicochemical
[1] = Saturated concentration for water; settings: shaken 48 hours, d.s.b.
Protocol: A surplus volume of the crystalline powder of α-D-glucosyl α-D-galactoside obtained in Experiment 3 was added to 10 ml of distilled water, shaken at 25° C. or 40° C. for 48 hours, and filtrated to collect a crystalline powder, which is more than the solubility, by using a 0.45 μm filter, followed by collecting two filtrates (saturated solutions). Moisture content of the filtrates was measured by using a desiccating agent method described in “Standard Methods of Analysis in Food Safety Regulation, Chemistry” published by Japan Food Hygiene Association under the editorship of Ministry of Health, Labor and Welfare, 1991, to examine a saturated concentration of α-D-glucosyl α-D-galactoside.

[2] = Moisture absorption test on crystalline α-D-glucosyl α-D-galactoside; settings: 25° C.
Source text: (§1) A half gram aliquots of the crystalline powder of α-D-glucosyl α-D-galactoside obtained in Experiment 3 were placed in aluminum weighing cans, which had been precisely weighed in advance, and each weighing can was weighed. The weight of each weighing can was subtracted from the total weight to calculate the starting weight of the crystalline powder of α-D-glucosyl α-D-galactoside. Each weighing can with the crystalline powder of α-D-glucosyl α-D-galactoside was placed in a glass desiccator which the relative humidity was controlled to a level of 33–99% in advance, and stored at 25° C. for one to seven days while keeping at the desired humidity. After the moisture absorption test, each weighing can had been precisely weighted and calculated for increasing weight to obtain a moisture absorption level (%). In the test, the crystalline powder was macroscopically observed.

[3] = Moisture absorption test on amorphous α-D-glucosyl α-D-galactoside; settings: 25° C.; for Diffraction spectrum: powdery X-ray diffraction
Protocol: The crystalline powder of α-D-glucosyl α-D-galactoside obtained in Experiment 3 was examined for crystallinity by powdery X-ray diffraction analysis by using “GEIGERFLEX RAD-IIB™”, an X-ray diffraction analyzer using Cuk α ray commercialized by Rigaku Corporation, Tokyo, Japan, to obtain a spectrum as shown in FIG. 3 having peaks with diffraction angles (2θ) of at least 13.4°, 17.4°, 19.7°, and 22.3°. Crystallinity of the crystallized powder was calculated to be about 72.5% by using “Program for Crystallinity Analysis by Ruland method”, a computer program installed in the analyzer.
as §1
The crystalline powder of α-D-glucosyl α-D-galactoside obtained in Experiment 3 was dissolved in water to obtain an aqueous solution with a concentration of 30% (w/w). The resultant aqueous solution was frozen and dried into an amorphous powder of α-D-glucosyl α-D-galactoside. Similar as in Experiment 10, the obtained amorphous powder was placed in aluminum weighing cans, and the cans were placed in a glass desiccator which the relative humidity was controlled to a level of 43–90% in advance, and stored at 25° C. for one to seven days while keeping at the desired humidity. After the moisture absorption test, moisture absorption level (%) was calculated similarly as in Experiment 10. In the test, the appearance of each powder was macroscopically observed. Samples after a storage for seven days were confirmed for their appearance by a powdery X-ray diffraction analysis in Experiment 4, and samples with crystals were examined for their crystallinity.

[4] = relative humidity 33%, storage one day
[5] = relative humidity 33%, storage seven days
[6] = relative humidity 33%, storage three days
[7] = relative humidity 33%, storage two days
[8] = relative humidity 43%, storage one day
[9] = relative humidity 43%, storage seven days
[10] = relative humidity 43%, storage three days
[11] = relative humidity 43%, storage two days
[12] = relative humidity 53%, storage one day
[13] = relative humidity 53%, storage seven days
[14] = relative humidity 53%, storage three days
[15] = relative humidity 53%, storage two days
[16] = relative humidity 60%, storage one day
[17] = relative humidity 60%, storage seven days
[18] = relative humidity 60%, storage three days
[19] = relative humidity 60%, storage two days
[20] = relative humidity 75%, storage one day
[21] = relative humidity 75%, storage seven days
[22] = relative humidity 75%, storage three days
[23] = relative humidity 75%, storage two days
[24] = relative humidity 84%, storage one day
[25] = relative humidity 84%, storage seven days
[26] = relative humidity 84%, storage three days
[27] = relative humidity 84%, storage two days
[28] = relative humidity 90%, storage one day
[29] = relative humidity 90%, storage seven days
[30] = relative humidity 90%, storage three days
[31] = relative humidity 90%, storage two days
[32] = relative humidity 43%, storage for one day
[33] = relative humidity 43%, storage for seven days
[34] = relative humidity 53%, storage for one day
[35] = relative humidity 53%, storage for seven days
[36] = relative humidity 60%, storage for one day
[37] = relative humidity 60%, storage for seven days
[38] = relative humidity 90%, storage for one day
[39] = relative humidity 90%, storage for seven days

For `OC[C@H]1O[C@H](O[C@H]2O[C@H](CO)[C@@H](O)[C@H](O)[C@H]2O)[C@H](O)[C@@H](O)[C@H]1O` [crystalline α-D-glucosyl α-D-galactoside, α-D-glucosyl α-D-galactoside], the “saturated concentration in water” value ([1]; 25° C.) was 68.9 % (w/w), the “saturated concentration in water” value ([1]; 40° C.) was 71.8 % (w/w) and the “A(%) Moisture absorption level” value [2, 4] was 0.0%. For the same molecule, the Appearance [2, 4] was “Unchanged”, the “A(%) Moisture absorption level” value [2, 5] was 0.0% and the Appearance [2, 5] was “Unchanged”. The “A(%) Moisture absorption level” value [2, 6] was 0.0%, the Appearance [2, 6] was “Unchanged” and the “A(%) Moisture absorption level” value [2, 7] was 0.0%. The Appearance [2, 7] was “Unchanged”, the “A(%) Moisture absorption level” value [2, 8] was 0.0% and the Appearance [2, 8] was “Unchanged”. For the same molecule, the “A(%) Moisture absorption level” value [2, 9] was 0.0%, the Appearance [2, 9] was “Unchanged” and the “A(%) Moisture absorption level” value [2, 10] was 0.0%. For the same molecule, the Appearance [2, 10] was “Unchanged”, the “A(%) Moisture absorption level” value [2, 11] was 0.0% and the Appearance [2, 11] was “Unchanged”. The “A(%) Moisture absorption level” value [2, 12] was 0.0%, the Appearance [2, 12] was “Unchanged” and the “A(%) Moisture absorption level” value [2, 13] was 0.1%. The Appearance [2, 13] was “Unchanged”, the “A(%) Moisture absorption level” value [2, 14] was 0.0% and the Appearance [2, 14] was “Unchanged”. The “A(%) Moisture absorption level” value [2, 15] was 0.0%, the Appearance [2, 15] was “Unchanged” and the “A(%) Moisture absorption level” value [2, 16] was 0.1%. For the same molecule, the Appearance [2, 16] was “Unchanged”, the “A(%) Moisture absorption level” value [2, 17] was 0.2% and the Appearance [2, 17] was “Unchanged”. The “A(%) Moisture absorption level” value [2, 18] was 0.1%, the Appearance [2, 18] was “Unchanged” and the “A(%) Moisture absorption level” value [2, 19] was 0.1%. For the same molecule, the Appearance [2, 19] was “Unchanged”, the “A(%) Moisture absorption level” value [2, 20] was 0.1% and the Appearance [2, 20] was “Unchanged”. For the same molecule, the “A(%) Moisture absorption level” value [2, 21] was 0.2%, the Appearance [2, 21] was “Unchanged” and the “A(%) Moisture absorption level” value [2, 22] was 0.1%. The Appearance [2, 22] was “Unchanged”, the “A(%) Moisture absorption level” value [2, 23] was 0.1% and the Appearance [2, 23] was “Unchanged”. For the same molecule, the “A(%) Moisture absorption level” value [2, 24] was 3.2%, the Appearance [2, 24] was “Hardened” and the “A(%) Moisture absorption level” value [2, 25] was 11.0%. The Appearance [2, 25] was “Hardened”, the “A(%) Moisture absorption level” value [2, 26] was 6.1% and the Appearance [2, 26] was “Hardened”. The “A(%) Moisture absorption level” value [2, 27] was 4.4%, the Appearance [2, 27] was “Hardened” and the “A(%) Moisture absorption level” value [2, 28] was 6.9%. For the same molecule, the Appearance [2, 28] was “p.d”, the “A(%) Moisture absorption level” value [2, 29] was 42.1% and the Appearance [2, 29] was “Deliquescence”. The “A(%) Moisture absorption level” value [2, 30] was 19.2%, the Appearance [2, 30] was “Deliquescence” and the “A(%) Moisture absorption level” value [2, 31] was 11.8%. The Appearance [2, 31] was “p.d” and the “moisture absorption (in words)” value ([2]; relative humidity of 75% or lower, one to seven days) was “did not absorb moisture”.

With `OC[C@H]1O[C@H](O[C@H]2O[C@H](CO)[C@@H](O)[C@H](O)[C@H]2O)[C@H](O)[C@@H](O)[C@H]1O` [amorphous α-D-glucosyl α-D-galactoside, α-D-glucosyl α-D-galactoside] the “A(%)* Moisture absorption level” value [3, 32] was 4.5%, the “Appearance (macroscopically observed)” value [3, 32] was “Solidified” and the “A(%)* Moisture absorption level” value [3, 33] was 6.3%. The “Appearance (macroscopically observed)” value [3, 33] was “Solidified”, the Diffraction spectrum [3, 33] was “Amorphous” and the “A(%)* Moisture absorption level” value [3, 34] was 3.5%. The “Appearance (macroscopically observed)” value [3, 34] was “Wet on the surface”, the “A(%)* Moisture absorption level” value [3, 35] was 1.8% and the “Appearance (macroscopically observed)” value [3, 35] was “Hardened”. The Crystallinity [3, 35] was 67%, the Diffraction spectrum [3, 35] was “Crystal monohydrate” and the “A(%)* Moisture absorption level” value [3, 36] was 3.1%. For the same molecule, the “Appearance (macroscopically observed)” value [3, 36] was “Wet on the surface”, the “A(%)* Moisture absorption level” value [3, 37] was 2.0% and the “Appearance (macroscopically observed)” value [3, 37] was “Hardened”. For the same molecule, the Crystallinity [3, 37] was 71%, the Diffraction spectrum [3, 37] was “Crystal monohydrate” and the “A(%)* Moisture absorption level” value [3, 38] was 13.2%. For the same molecule, the “Appearance (macroscopically observed)” value [3, 38] was “Partial deliquescence”, the “A(%)* Moisture absorption level” value [3, 39] was 36.2% and the “Appearance (macroscopically observed)” value [3, 39] was “Deliquescence”. For the same molecule, the “moisture absorption (in words)” value ([3]; relative humidity of 43–90%, one to seven days) was “remarkably absorbed moisture”.
